From patent US20100298141A1, “SUBSTITUTED PYRIDINE N-OXIDE HERBICIDES” (E. I. DU PONT DE NEMOURS AND COMPANY, priority 2007, published 2010)

What was measured:
[1] = tested on: barnyardgrass; assay: Test A pre-/postemergence greenhouse test; assay type: in vivo, Echinochloa crus-galli; conditions: for Barnyardgrass plant response rating: 0 to 100 scale; for Plant response rating, Barnyardgrass: 0 to 100 scale where 0 is no effect and 100 is complete control
In short: (§1)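 Test compounds in non-phytotoxic solvent with surfactant were applied as a preemergence soil spray to seeded loam/sand pots and, concurrently, postemergence to plants at 2–10 cm, one- to two-leaf stage. About ten days in greenhouse, then injury visually rated against untreated controls.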

[2] = tested on: crabgrass; assay: Test A pre-/postemergence greenhouse test; assay type: in vivo, Digitaria sanguinalis; conditions: for Crabgrass, Large plant response rating: 0 to 100 scale; for Plant response rating, Crabgrass, Large: 0 to 100 scale where 0 is no effect and 100 is complete control
In short: as §1

[3] = tested on: giant foxtail; assay: Test A pre-/postemergence greenhouse test; assay type: in vivo, Setaria faberi; conditions: for Foxtail, Giant plant response rating: 0 to 100 scale; for Plant response rating, Foxtail, Giant: 0 to 100 scale where 0 is no effect and 100 is complete control
In short: as §1

[4] = tested on: morningglory; assay: Test A pre-/postemergence greenhouse test; assay type: in vivo, Ipomoea spp.; conditions: for Morningglory plant response rating: 0 to 100 scale; for Plant response rating, Morningglory: 0 to 100 scale where 0 is no effect and 100 is complete control
In short: as §1

[5] = tested on: Italian ryegrass; assay: Test C pre-/postemergence test; assay type: in vivo, Lolium multiflorum
In short: (§2)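 Seeds were planted and treated preemergence with test chemical in a non-phytotoxic solvent mixture containing surfactant. Postemergence applications of the same formulation went onto plants 2 to 18 cm tall (1- to 4-leaf stage). A dash marks no test result.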

[6] = tested on: bermudagrass; assay: Test C pre-/postemergence test; assay type: in vivo, Cynodon dactylon
In short: as §2

[7] = tested on: Surinam grass; assay: Test C pre-/postemergence test; assay type: in vivo, Brachiaria decumbens
In short: as §2

[8] = tested on: cocklebur; assay: Test C pre-/postemergence test; assay type: in vivo, Xanthium strumarium
In short: as §2

[9] = tested on: crabgrass; assay: Test C pre-/postemergence test; assay type: in vivo, Digitaria sanguinalis
In short: as §2

[10] = tested on: Goosegrass; assay: Test C pre-/postemergence test; assay type: in vivo, Eleusin indica
In short: as §2

[11] = tested on: lambsquarters; assay: Test C pre-/postemergence test; assay type: in vivo, Chenopodium album
Excerpt: (§3) Seeds of plant species selected from blackgrass (Alopecurus myosuroides), downy brome (Bromus tectorum), green foxtail (Setaria viridis), Italian ryegrass (Lolium multiflorum), wheat (Triticum aestivum), wild oat (Avena fatua), catchweed bedstraw (Galium aparine), Russian thistle (Salsola kali), […] (Cynodon dactylon), Surinam grass (Brachiaria decumbens), cocklebur (Xanthium strumarium), corn (Zea mays), crabgrass (Digitaria sanguinalis), woolly cupgrass (Eriochloa villosa), giant foxtail (Setaria faberii), Goosegrass (Eleusin indica), johnsongrass (Sorghum halepense), kochia (Kochia scoparia), lambsquarters (Chenopodium album), morningglory (Ipomoea coccinea), eastern black nightshade (Solanum ptycanthum), yellow nutsedge (Cyperus esculentus), pigweed (Amaranthus retroflexus), common ragweed (Ambrosia elation), soybean (Glycine max), common (oilseed) sunflower (Helianthus annuus), and velvetleaf (Abutilon theophrasti) were planted and treated preemergence with test chemicals formulated in a non-phytotoxic solvent mixture which included a surfactant. At the same time, plants selected from these crop and weed species and also winter barley (Hordeum vulgare), canarygrass (Phalaris minor), and chickweed (Stellaria media) were treated with postemergence applications of some of the test chemicals formulated in the same manner. Plants ranged in height from 2 to 18 cm (1- to 4-leaf stage) for postemergence treatments. […] At time of treatment, test pots were flooded to 3 cm above the soil surface, treated by application of test compounds directly to the paddy water, and then maintained at that water depth for the duration of the test. […] A dash (-) response means no test result.

[12] = tested on: pigweed; assay: Test C pre-/postemergence test; assay type: in vivo, Amaranthus retroflexus
In short: as §2

[13] = tested on: soybean; assay: Test C pre-/postemergence test; assay type: in vivo, Glycine max
In short: as §2

[14] = tested on: common (oilseed) sunflower; assay: Test C pre-/postemergence test; assay type: in vivo, Helianthus annuus
Excerpt: as §3

[15] = tested on: umbrella sedge; assay: Test C flooded paddy test; assay type: in vivo, Cyperus difformis; conditions: Flood
In short: (§4)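 Under a constant 3 cm flood, test compounds went directly into the paddy water. Following 13 to 15 days of greenhouse growth, treated species and controls were compared by eye.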

[16] = tested on: barnyardgrass; assay: Test C flooded paddy test; assay type: in vivo, Echinochloa crus-galli; conditions: Flood
In short: as §4

[17] = Postemergence, 125 g ai/ha, 0 is no effect, 100 is complete control
[18] = Postemergence, 500 g ai/ha, 0 is no effect, 100 is complete control
[19] = Preemergence, 125 g ai/ha, 0 no effect, 100 complete control
[20] = 62 g ai/ha, Preemergence, scale 0 to 100
[21] = 125 g ai/ha, preemergence, scale 0 (no effect) to 100 (complete control)
[22] = Preemergence, 31 g ai/ha, scale 0 to 100 (0 no effect, 100 complete control)
[23] = preemergence, 250 g ai/ha, scale 0 (no effect) to 100 (complete control)
[24] = 31 g ai/ha, scale 0 to 100 (0 no effect, 100 complete control)
[25] = 62 g ai/ha, scale 0 to 100, 0 no effect, 100 complete control, 13 to 15 days
[26] = 125 g ai/ha, scale 0 to 100, 0 no effect, 100 complete control, 13 to 15 days
[27] = 250 g ai/ha, scale 0 to 100, 0 no effect, 100 complete control, 13 to 15 days
[28] = 31 g ai/ha, Preemergence, scale 0 to 100
[29] = 62 g ai/ha, preemergence, scale 0 (no effect) to 100 (complete control)
[30] = preemergence, 125 g ai/ha, scale 0 (no effect) to 100 (complete control)
[31] = 250 g ai/ha, scale 0 to 100 (0 no effect, 100 complete control)

Cn1nc(C(F)(F)F)c(C[S+]([O-])c2cc(Br)cc[n+]2[O-])c1Cl (racemic) [Compound 35]
Barnyardgrass plant response rating [1, 17]: 50 | Barnyardgrass plant response rating [1, 18]: 80 | Barnyardgrass plant response rating [1, 19]: 70 | Plant response rating, Barnyardgrass ([1]; Preemergence, 500 g ai/ha): 100 | Crabgrass, Large plant response rating [2, 17]: 50 | Crabgrass, Large plant response rating [2, 18]: 80 | Crabgrass, Large plant response rating [2, 19]: 60 | Plant response rating, Crabgrass, Large ([2]; Preemergence, 500 g ai/ha): 80 | Foxtail, Giant plant response rating [3, 17]: 50 | Foxtail, Giant plant response rating [3, 18]: 80 | Foxtail, Giant plant response rating [3, 19]: 100 | Plant response rating, Foxtail, Giant ([3]; Preemergence, 500 g ai/ha): 100 | Morningglory plant response rating [4, 17]: 40 | Morningglory plant response rating [4, 18]: 70 | Morningglory plant response rating [4, 19]: 50 | Plant response rating, Morningglory ([4]; Preemergence, 500 g ai/ha): 80 | Ryegrass, Italian plant response rating [5, 20]: 20 | Ryegrass, Italian plant response rating [5, 21]: 20 | Plant response rating, Ryegrass, Italian [5, 22]: 10 | Ryegrass, Italian plant response rating [5, 23]: 20 | Bermudagrass plant response rating ([6]; 62 g ai/ha, Preemergence, scale 0 to 100 (0 no effect, 100 complete control)): 100 | Bermudagrass plant response rating [6, 21]: 100 | Plant response rating, Bermudagrass [6, 22]: 90 | Bermudagrass plant response rating [6, 23]: 100 | Surinam Grass plant response rating [7, 20]: 55 | Surinam Grass plant response rating [7, 21]: 100 | Plant response rating, Surinam Grass [7, 22]: 30 | Surinam Grass plant response rating [7, 23]: 100 | Cocklebur plant response rating [8, 20]: 0 | Cocklebur plant response rating [8, 21]: 0 | Cocklebur plant response rating [8, 23]: 0 | Crabgrass, Large plant response rating [9, 20]: 100 | Crabgrass, Large plant response rating [9, 21]: 100 | Plant response rating, Crabgrass, Large [9, 22]: 85 | Crabgrass, Large plant response rating [9, 23]: 100 | Goosegrass plant response rating [10, 20]: 100 | Goosegrass plant response rating [10, 21]: 100 | Plant response rating, Goosegrass [10, 22]: 80 | Goosegrass plant response rating [10, 23]: 100 | Lambsquarters plant response rating [11, 20]: 100 | Lambsquarters plant response rating [11, 21]: 100 | Plant response rating, Lambsquarters [11, 22]: 100 | Lambsquarters plant response rating [11, 23]: 100 | Pigweed plant response rating [12, 20]: 100 | Pigweed plant response rating [12, 21]: 100 | Plant response rating, Pigweed [12, 22]: 100 | Pigweed plant response rating [12, 23]: 100 | Soybean plant response rating [13, 20]: 0 | Soybean plant response rating [13, 21]: 10 | Plant response rating, Soybean [13, 22]: 0 | Soybean plant response rating [13, 23]: 60 | Sunflower plant response rating [14, 20]: 0 | Sunflower plant response rating [14, 21]: 0 | Plant response rating, Sunflower [14, 22]: 0 | Sunflower plant response rating [14, 23]: 30 | Plant response rating, Sedge, Umbrella [15, 24]: 80 | Plant response rating, Sedge, Umbrella [15, 25]: 90 | Plant response rating, Sedge, Umbrella [15, 26]: 95 | Plant response rating, Sedge, Umbrella [15, 27]: 95 | Plant response rating, Barnyardgrass [16, 24]: 0 | Plant response rating, Barnyardgrass [16, 25]: 0 | Plant response rating, Barnyardgrass [16, 26]: 20 | Plant response rating, Barnyardgrass [16, 27]: 40

Cn1nc(C(F)(F)F)c(CS(=O)(=O)c2ccc(Cl)c[n+]2[O-])c1OC(F)F [Compound 7]
Barnyardgrass plant response rating [1, 17]: 10 | Barnyardgrass plant response rating [1, 19]: 90 | Plant response rating, Barnyardgrass ([1]; Preemergence, 500 g ai/ha): 90 | Crabgrass, Large plant response rating [2, 17]: 70 | Crabgrass, Large plant response rating [2, 18]: 80 | Crabgrass, Large plant response rating [2, 19]: 90 | Plant response rating, Crabgrass, Large ([2]; Preemergence, 500 g ai/ha): 90 | Foxtail, Giant plant response rating [3, 17]: 30 | Foxtail, Giant plant response rating [3, 18]: 70 | Foxtail, Giant plant response rating [3, 19]: 90 | Plant response rating, Foxtail, Giant ([3]; Preemergence, 500 g ai/ha): 90 | Morningglory plant response rating [4, 18]: 10 | Plant response rating, Morningglory ([4]; Preemergence, 500 g ai/ha): 30 | Ryegrass, Italian plant response rating [5, 28]: 0 | Ryegrass, Italian plant response rating [5, 29]: 40 | Plant response rating (0 to 100), Ryegrass, Italian ([5]; Preemergence, 250 g ai/ha): 50 | Ryegrass, Italian plant response rating [5, 30]: 50 | Bermudagrass plant response rating [6, 28]: 100 | Bermudagrass plant response rating [6, 29]: 100 | Plant response rating (0 to 100), Bermudagrass ([6]; Preemergence, 250 g ai/ha): 100 | Bermudagrass plant response rating [6, 30]: 100 | Surinam Grass plant response rating [7, 29]: 20 | Plant response rating (0 to 100), Surinam Grass ([7]; Preemergence, 250 g ai/ha): 70 | Surinam Grass plant response rating [7, 30]: 30 | Cocklebur plant response rating [8, 28]: 0 | Cocklebur plant response rating [8, 29]: 0 | Plant response rating (0 to 100), Cocklebur ([8]; Preemergence, 250 g ai/ha): 0 | Cocklebur plant response rating [8, 30]: 0 | Crabgrass, Large plant response rating [9, 28]: 100 | Crabgrass, Large plant response rating [9, 29]: 100 | Plant response rating (0 to 100), Crabgrass, Large ([9]; Preemergence, 250 g ai/ha): 100 | Crabgrass, Large plant response rating [9, 30]: 100 | Goosegrass plant response rating [10, 28]: 100 | Goosegrass plant response rating [10, 29]: 100 | Plant response rating (0 to 100), Goosegrass ([10]; Preemergence, 250 g ai/ha): 100 | Goosegrass plant response rating [10, 30]: 100 | Lambsquarters plant response rating [11, 28]: 0 | Lambsquarters plant response rating [11, 29]: 0 | Plant response rating (0 to 100), Lambsquarters ([11]; Preemergence, 250 g ai/ha): 100 | Lambsquarters plant response rating [11, 30]: 80 | Pigweed plant response rating [12, 28]: 100 | Pigweed plant response rating [12, 29]: 100 | Plant response rating (0 to 100), Pigweed ([12]; Preemergence, 250 g ai/ha): 100 | Pigweed plant response rating [12, 30]: 100 | Soybean plant response rating [13, 28]: 0 | Soybean plant response rating [13, 29]: 0 | Plant response rating (0 to 100), Soybean ([13]; Preemergence, 250 g ai/ha): 30 | Soybean plant response rating [13, 30]: 0 | Sunflower plant response rating [14, 29]: 0 | Plant response rating (0 to 100), Sunflower ([14]; Preemergence, 250 g ai/ha): 0 | Sunflower plant response rating [14, 30]: 0 | Plant response rating, Sedge, Umbrella [15, 24]: 0 | Plant response rating, Sedge, Umbrella [15, 25]: 40 | Plant response rating, Sedge, Umbrella [15, 26]: 55 | Plant response rating, Sedge, Umbrella [15, 31]: 60 | Plant response rating, Barnyardgrass [16, 24]: 0 | Plant response rating, Barnyardgrass [16, 25]: 0 | Plant response rating, Barnyardgrass [16, 26]: 0 | Plant response rating, Barnyardgrass [16, 31]: 20
